In ChEMBL document CHEMBL1201862, “PubChem BioAssay data set” (2004):
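Test compounds were applied to cells in 96-well plates for 48 hours at 5 doses. Here, GI50 denotes the concentration required for 50% inhibition of growth.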 Active and inactive are the calls of the source. Cut-off read from the data, not from the text of the source: active = GI50 up to about 1.1 µM and inactive = higher.

Experiments:
Assay in all cases: growth of human tumour cells (NCI), 48 h
[1] = system: TK-10
[2] = system: MDA-N
[3] = system: IGROV-1
[4] = system: NCI-H460
[5] = system: SN12C
[6] = system: SNB-75
[7] = system: CCRF-CEM
[8] = system: OVCAR-5
[9] = system: KM12
[10] = system: LOX IMVI
[11] = system: SK-MEL-5
[12] = system: OVCAR-3
[13] = system: SF-295
[14] = system: 786-0
[15] = system: RXF 393
[16] = system: RPMI-8226
[17] = system: UACC-62
[18] = system: HOP-62
[19] = system: SK-MEL-28
[20] = system: HCC 2998

Measured: GI50

COc1ccc(NC=O)c(C(=O)CCNC(C)=O)c1
inactive: [1] > 100 µM | [2] > 100 µM | [3] > 100 µM | [4] > 100 µM | [5] > 100 µM | [6] > 100 µM | [7] > 100 µM | [8] > 100 µM | [9] > 100 µM | [10] > 100 µM | [11] > 100 µM | [12] > 100 µM | [13] > 100 µM | [14] > 100 µM | [15] > 100 µM | [16] > 100 µM | [17] > 100 µM

O=C(Nc1ccc(-c2cn3ccccc3n2)cc1)c1cc(Br)ccc1O
inactive: [1] > 100 µM | [2] > 100 µM | [18] > 100 µM | [3] > 100 µM | [4] > 100 µM | [5] > 100 µM | [6] > 100 µM | [7] > 100 µM | [8] > 100 µM | [9] > 100 µM | [10] > 100 µM | [19] > 100 µM | [11] > 100 µM | [12] > 100 µM | [13] > 100 µM | [14] > 100 µM | [15] > 100 µM | [16] > 100 µM | [17] > 100 µM

CC(=O)/C=C1\Nc2ccc([N+](=O)[O-])cc2N\C1=C/C(C)=O
inactive: [1] 65.5 µM | [2] 37.3 µM | [18] 44.9 µM | [3] 39.5 µM | [4] 21.5 µM | [5] 28.7 µM | [6] > 100 µM | [7] 17.2 µM | [8] > 100 µM | [9] 34.3 µM | [10] 73.5 µM | [19] 51.1 µM | [11] 24.7 µM | [12] 31.1 µM | [13] 42.2 µM | [14] 58.1 µM | [15] 64.3 µM | [16] 20.6 µM | [17] 26.7 µM

O=C1c2cc3ccccc3cc2C2(c3ccc(Cl)cc3)N[C@H]3CCCC[C@@H]3N12 (some centres not stated)
inactive: [1] 11.7 µM | [2] 18.1 µM | [18] 6.79 µM | [3] 13.3 µM | [4] 14.9 µM | [5] 16.6 µM | [6] 16.5 µM | [7] 48 µM | [8] 21 µM | [9] 16.9 µM | [10] 19 µM | [19] 12.3 µM | [11] 16.7 µM | [12] 19.4 µM | [13] 13.8 µM | [14] 11.2 µM | [15] 9.89 µM | [16] 18.4 µM | [17] 15 µM

Cn1ncc2[nH]cnc2c1=S
inactive: [1] > 100 µM | [2] > 100 µM | [18] > 100 µM | [3] > 100 µM | [4] > 100 µM | [5] > 100 µM | [6] 86.1 µM | [7] 19.8 µM | [8] > 100 µM | [9] > 100 µM | [19] > 100 µM | [11] 82.4 µM | [12] > 100 µM | [13] > 100 µM | [14] > 100 µM | [15] > 100 µM | [16] 34.8 µM | [17] > 100 µM

N=C(c1cccs1)C1(N2CCCCC2)CCCCC1
inactive: [1] 17.3 µM | [2] 49.5 µM | [18] 20.3 µM | [3] 22.3 µM | [4] 15.7 µM | [5] 33.8 µM | [7] 17.7 µM | [8] 19.4 µM | [9] 17.6 µM | [10] 28.2 µM | [12] 15.3 µM | [13] 18.2 µM | [14] 70.5 µM | [15] 14.6 µM | [16] 16.5 µM | [20] 14.1 µM | [17] 14.9 µM

CCN(CC)c1nc(N(C)C)c2cc(OC)ccc2n1
inactive: [1] 34.4 µM | [2] 24.7 µM | [18] 92.7 µM | [3] 30.8 µM | [4] 20 µM | [5] 22.2 µM | [8] 62.5 µM | [9] 26.6 µM | [10] 26.8 µM | [19] 28.3 µM | [11] 17.4 µM | [12] 35.6 µM | [13] 26.7 µM | [14] 20.7 µM | [15] 24.3 µM | [16] 20.1 µM | [20] 18.5 µM | [17] 25.8 µM

O=C1C/C(=N/c2ccc(Cl)cc2)C(c2ccccc2)N1c1ccccc1 (configuration not stated)
inactive: [1] 23.9 µM | [2] 2.5 µM | [18] 32.1 µM | [3] 18.2 µM | [4] 29 µM | [5] 23.9 µM | [9] 6.61 µM | [10] 6.05 µM | [19] 7.87 µM | [11] 5.9 µM | [12] 2.99 µM | [13] 8.61 µM | [14] 38.4 µM | [15] 35 µM | [16] 2.28 µM | [20] > 100 µM | [17] 1.43 µM

COc1cc(/C=C/c2nc(N)nnc2C)cc(OC)c1OC
inactive: [1] > 43.8 µM | [2] 35.2 µM | [18] 13 µM | [3] 15.6 µM | [4] 13.8 µM | [5] > 70 µM | [7] 6 µM | [8] > 38.5 µM | [9] 10.9 µM | [10] 7.31 µM | [19] 30.1 µM | [11] 14.1 µM | [13] 29.2 µM | [14] 21.5 µM | [15] 22.9 µM | [16] 14.1 µM | [20] 9.86 µM | [17] 6.82 µM

CC(C)(C)OC(=O)N1C(C2=COc3ccccc3O2)=COc2ccccc21
inactive: [1] 33.6 µM | [2] 32.4 µM | [18] 15.5 µM | [3] 9.75 µM | [4] 28.9 µM | [5] 26.6 µM | [6] 35 µM | [8] 33.3 µM | [9] 29.9 µM | [10] 17.5 µM | [19] 30.1 µM | [11] 19.1 µM | [12] 21.1 µM | [13] 26.9 µM | [14] 38.1 µM | [15] 5.18 µM | [16] 13.9 µM | [20] 16.2 µM | [17] 15.7 µM

Nn1c(CCCCCCCCc2nnc(COc3ccc(Cl)cc3Cl)n2N)nnc1COc1ccc(Cl)cc1Cl
inactive: [1] 89.9 µM | [2] 62.5 µM | [3] 6.43 µM | [4] 63.8 µM | [5] 22.2 µM | [6] > 10 µM | [8] 35.6 µM | [9] 40 µM | [19] 68.5 µM | [11] 38.5 µM | [13] > 10 µM | [14] 63.5 µM | [15] 38.5 µM | [16] 21.6 µM | [20] 56.6 µM | [17] 38.6 µM
